Assay results as given in US20260015357A1, “MODULATORS OF NLRP3 INFLAMMASOME AND RELATED PRODUCTS AND METHODS” (Neumora Therapeutics, Inc., priority 2022, published 2026).

How the values were obtained:
NLRP3 inflammasome = target: T1, NLRP3 inflammasome (Homo sapiens, UniProt Q96P20); assay: NLRP3 inflammasome activation in LPS-primed, nigericin-activated THP1 macrophages, IL-1β AlphaLISA; assay type: cell-based; conditions: PMA-differentiated, 1 hr compound, Nigericin 6.7 uM 3 hrs, IL-1β in supernatant
T1 construct: host or cells: THP1 human acute monocytic leukemia cells, PMA-differentiated, LPS-primed
T1 sequence (Q96P20 whole entry): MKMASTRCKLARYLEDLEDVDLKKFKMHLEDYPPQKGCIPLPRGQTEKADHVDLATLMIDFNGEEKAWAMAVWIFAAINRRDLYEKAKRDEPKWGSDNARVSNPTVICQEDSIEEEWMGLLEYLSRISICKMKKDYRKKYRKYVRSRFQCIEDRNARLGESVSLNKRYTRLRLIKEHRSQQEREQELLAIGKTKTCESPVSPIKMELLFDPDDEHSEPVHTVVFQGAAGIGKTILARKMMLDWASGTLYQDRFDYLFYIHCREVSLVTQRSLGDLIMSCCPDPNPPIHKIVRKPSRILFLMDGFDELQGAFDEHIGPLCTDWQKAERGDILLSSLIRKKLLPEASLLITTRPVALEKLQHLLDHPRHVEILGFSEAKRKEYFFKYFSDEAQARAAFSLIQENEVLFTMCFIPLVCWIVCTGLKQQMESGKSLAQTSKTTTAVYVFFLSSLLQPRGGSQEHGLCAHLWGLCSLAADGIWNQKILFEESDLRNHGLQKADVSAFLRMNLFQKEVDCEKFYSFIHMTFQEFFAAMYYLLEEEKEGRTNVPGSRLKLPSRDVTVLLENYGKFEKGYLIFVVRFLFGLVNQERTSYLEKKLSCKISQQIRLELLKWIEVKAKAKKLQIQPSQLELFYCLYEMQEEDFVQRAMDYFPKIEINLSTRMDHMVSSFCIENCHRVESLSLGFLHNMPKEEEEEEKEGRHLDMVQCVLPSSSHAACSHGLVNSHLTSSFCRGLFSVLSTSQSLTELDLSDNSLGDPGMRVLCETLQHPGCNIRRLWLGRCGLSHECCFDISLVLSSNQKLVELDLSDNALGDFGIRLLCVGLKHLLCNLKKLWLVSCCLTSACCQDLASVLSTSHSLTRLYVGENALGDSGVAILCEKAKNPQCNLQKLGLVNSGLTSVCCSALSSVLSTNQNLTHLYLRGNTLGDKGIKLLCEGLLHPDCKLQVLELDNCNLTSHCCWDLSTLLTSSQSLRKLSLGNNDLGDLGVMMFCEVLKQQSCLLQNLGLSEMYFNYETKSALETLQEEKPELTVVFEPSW
Method: (§1) NLRP3 Inflammasome Activation and Cell Viability Assessment in THP1 Macrophages
(§2) THP1—Human acute monocytic leukemia cells were cultured (ATCC, cat #TIB-202) in Gibco RPMI-1640 medium (ThermoFisher cat #72400054) supplemented with 10% Heat Inactivated FBS at density between 3-8×10^5 viable cells/mi. The cells were then subcultured when the cell concentration reached 8×10^5 cells/mL (every 2-3 days).
(§3) The parameter wells were filled with 50 ul PBS and incubated at 37° C., 5% CO2 for 48 hrs.
(§4) After 48 hrs incubation, the PMA containing media was removed, and changed for 40 ul/well of fresh DMEM, 10% FBS, 1× GlutaMax and incubated at 37° C., 5% CO2 for 24 hrs.
(§5) The following day the cells were primed with LPS (E. coli) (Sigma, cat #L3129) […] in DMEM, 10% FBS, 1× GlutaMax for 3 hrs at 37° C., 5% CO2.
(§6) Following the LPS priming step, the cells were treated with compounds at 10 uM top final concentration, 1:4 dilution, 8 times: (10 uM, 2.5 uM, 0.625 uM, 0.156 uM, 0.039 uM, 0.0097 uM, 0.0024 uM, 0.0006 uM). DMSO was used as a vehicle control, and MCC950 (InvivoGen, cat #inh-mcc) was used at 1 uM as a positive control, and incubated for 1 hrs at 37° C., 5% CO2.
(§7) Following the 1 hr compound incubation, the NLRP3 inflammasome activation step was conducted by treating cells with Nigericin (InvivoGen, cat #tlrl-nig) at 6.7 uM final concentration for 3 hrs at 37° C., 5% CO2.
(§8) Thereafter, 30 ul samples of cells' supernatants were collected for cytokine analysis which was conducted on Hu IL-1β AlphaLISA (Perkin Elmer, cat #AL220C) and Hu IL-6 AlphaLISA (Perkin Elmer, cat #AL220C). The cells' viability was assessed by performing CellTiter-Glo Luminescent Assay (Promega, cat #G7572) according to the manufacturer's protocol.

IL-6 = IL-6 in supernatants of LPS-primed, nigericin-treated THP1 macrophages, Hu IL-6 AlphaLISA; assay type: cell-based; conditions: Homo sapiens, THP-1, PMA-differentiated, 1 hr compound, Nigericin 6.7 uM 3 hrs, IL-6 in supernatant
Method: as §1, §2, §3, §4, §5, §6, §7, §8

IC50 (NLRP3 inflammasome) [µM] | IC50 (IL-6) [µM] | SMILES
≥ 10 | ≥ 10 | Cn1ccc2c(-c3ccc(C#N)cc3O)nnc(N[C@@H]3CCCN(c4cccnc4)C3)c21 [Compound 163]
0.01 to 0.1 | ≥ 10 | Cc1cc(C#N)ccc1-c1nnc(N[C@@H]2CCCN(C)C2)c2c1cnn2C [Compound 112]
1 to 10 | ≥ 10 | Cn1ccc2c(-c3ccc(C(F)(F)F)cc3)nnc(N[C@@H]3CCCN(S(C)(=O)=O)C3)c21 [Compound 159]
0.01 to 0.1 | ≥ 10 | Cc1cc(C(F)(F)F)ccc1-c1nnc(N[C@@H]2CCCN(C)C2)c2c1cnn2C [Compound 110]
≥ 10 | ≥ 10 | Cc1cc(C#N)cc(C)c1-c1nnc(N[C@@H]2CCCN(C)C2)c2c1ccn2C [Compound 126]
< 0.01 | ≥ 10 | N#Cc1ccc(-c2nnc(N[C@@H]3CCCN(CCO)C3)c3sncc23)c(O)c1 [Compound 151]
0.01 to 0.1 | 5 to 10 | CN1CCC[C@@H](Nc2nnc(-c3ccc(C#N)cc3O)c3ccn(C)c23)C1 [Compound 100]
< 0.01 | ≥ 10 | Cc1cc(C#N)cc(O)c1-c1nnc(N[C@@H]2CCCN(C)C2)c2c1cnn2C [Compound 115]
1 to 10 | ≥ 10 | Cc1cc(C#N)cnc1-c1nnc(N[C@@H]2CCCN(C)C2)c2c1ccn2C [Compound 132]
≥ 10 | ≥ 10 | CN1C[C@H](Nc2nnc(-c3ccc(C#N)cc3O)c3ccn(C)c23)CC(F)(F)C1 [Compound 145]
1 to 10 | ≥ 10 | Cn1ccc2c(-c3ccc(C#N)cc3O)nnc(N[C@@H]3CCCN(c4ccncc4)C3)c21 [Compound 162]
0.01 to 0.1 | 5 to 10 | Cc1cc2c(-c3ccc(C(F)(F)F)cc3)nnc(N[C@@H]3CCCN(C)C3)c2n1C [Compound 101]
1 to 10 | ≥ 10 | CN1CCC[C@@H](Nc2nnc(-c3ncc(C(F)(F)F)cc3O)c3ccn(C)c23)C1 [Compound 168]
0.1 to 0.5 | ≥ 10 | CN1CCC[C@@H](Nc2nnc(-c3ncc(C#N)cc3O)c3cnn(C)c23)C1 [Compound 111]
≥ 10 | ≥ 10 | CN1CCC[C@@H](N(C)c2nnc(-c3ccc(C(F)(F)F)cc3)c3c2cnn3C)C1 [Compound 106]
0.01 to 0.1 | ≥ 10 | Cn1ccc2c(-c3ccc(C#N)cc3O)nnc(N[C@@H]3CCCN(C4CC4)C3)c21 [Compound 146]
0.1 to 0.5 | ≥ 10 | CN1CCC[C@@H](Nc2nnc(-c3ccc(C#N)cc3C(F)F)c3cnn(C)c23)C1 [Compound 117]
< 0.01 | 5 to 10 | Cc1cc(C#N)cc(O)c1-c1nnc(N[C@@H]2CCCN(C)C2)c2c1ccn2C [Compound 127]
0.1 to 0.5 | ≥ 10 | Cn1ccc2c(-c3ccc(C#N)cc3O)nnc(N[C@@H]3CCCN(CCN)C3)c21 [Compound 164]
≥ 10 | ≥ 10 | Cc1cc(C#N)cnc1-c1nnc(N[C@@H]2CCCN(C)C2)c2c1cnn2C [Compound 139]
0.01 to 0.1 | 5 to 10 | Cn1ccc2c(-c3ccc(C#N)cc3O)nnc(N[C@@H]3CCCNC3)c21 [Compound 158]
0.01 to 0.1 | ≥ 10 | CN(C)CCN1CCC[C@@H](Nc2nnc(-c3ccc(C#N)cc3O)c3ccn(C)c23)C1 [Compound 156]
0.01 to 0.1 | ≥ 10 | CN1CCC[C@@H](Nc2nnc(-c3ccc(C(F)(F)F)cc3C(F)F)c3cnn(C)c23)C1 [Compound 119]
0.1 to 0.5 | ≥ 10 | CN1CCC[C@@H](N(C)c2nnc(-c3ccc(F)cc3O)c3ccoc23)C1 [Compound 107]
0.01 to 0.1 | ≥ 10 | Cn1ccc2c(-c3ccc(C#N)cc3O)nnc(N[C@@H]3CCCN(CCF)C3)c21 [Compound 148]

The next lines start with the compound.

SMILES | IC50 (NLRP3 inflammasome) [µM] | IC50 (IL-6) [µM]
CN1CCC[C@@H](Oc2nnc(-c3ccc(C(F)(F)F)cc3)c3ccoc23)C1 [Compound 88] | 1 to 10 | ≥ 10
CN1CCC[C@@H](N(C)c2nnc(-c3ccccc3O)c3[nH]ccc23)C1 (single isomer, unassigned) [Compound 68] | ≥ 10 | 5 to 10
CN1CCC[C@@H](Nc2nnc(-c3ccccc3O)c3ccn(C)c23)C1 (single isomer, unassigned) [Compound 17] | 0.01 to 0.1 | ≥ 10
Cc1cc2c(N[C@@H]3CCCN(C)C3)nnc(-c3ccc(C(F)(F)F)cc3)c2[nH]1 [Compound 75] | 1 to 10 | ≥ 10
CN1C[C@H](Nc2nnc(-c3ccc(C(F)(F)F)cc3)c3cc[nH]c23)CC(F)(F)C1 [Compound 19] | 0.1 to 0.5 | 5 to 10
CN1CCC[C@@H](Nc2nnc(-c3ccc(F)cc3O)c3[nH]ccc23)C1 [Compound 7] | 0.1 to 0.5 | ≥ 10
CN1CCC[C@@H](N(C)c2nnc(-c3ccc(C(F)(F)F)cc3)c3c2ccn3C)C1 [Compound 71] | 1 to 10 | ≥ 10
CN1CCC[C@@H](Nc2nnc(-c3ccccc3C(F)F)c3cc[nH]c23)C1 [Compound 12] | 0.1 to 0.5 | ≥ 10
CN1CCC[C@@H](Oc2nnc(-c3ccc(F)cc3O)c3ccsc23)C1 [Compound 86] | 0.1 to 0.5 | ≥ 10
CN1CCC[C@@H](N(C)c2nnc(-c3ccc(Cl)cc3)c3ccn(C)c23)C1 [Compound 82] | 1 to 10 | 1 to 5
Cc1cc(-c2nnc(N[C@@H]3CCCN(C)C3)c3[nH]ccc23)ccc1C(F)(F)F [Compound 23] | 1 to 10 | 5 to 10
CN1CCC[C@@H](Oc2nnc(-c3ccc(C(F)(F)F)cc3)c3cc[nH]c23)C1 [Compound 39] | 0.1 to 0.5 | 5 to 10
CN1CCC[C@@H](Nc2nnc(-c3ccc(C(F)(F)F)cc3)c3cnn(C)c23)C1 [Compound 31] | 0.01 to 0.1 | ≥ 10
CN1CCC[C@@H](Nc2nnc(-c3ccc(F)cc3O)c3ccn(C)c23)C1 [Compound 78] | < 0.01 | 1 to 5
CN1CCC[C@@H](Nc2nnc(-c3ccc(C(F)(F)F)cc3)c3c2ncn3C)C1 [Compound 29] | 0.5 to 1 | ≥ 10
CC(C)N1CCC[C@@H](Nc2nnc(-c3ccc(C(F)(F)F)cc3)c3ccn(C)c23)C1 [Compound 77] | 0.5 to 1 | ≤ 1
CN1CCC[C@@H](N(C)c2nnc(-c3ccccc3O)c3cc[nH]c23)C1 (single isomer, unassigned) [Compound 24] | 0.1 to 0.5 | 5 to 10
CC(C)N1CCC[C@@H](Nc2nnc(-c3ncc(C#N)cc3O)c3ccn(C)c23)C1 [Compound 99] | < 0.01 | 5 to 10
CN1CCC[C@@H](Oc2nnc(-c3ccc(F)cc3O)c3cc[nH]c23)C1 [Compound 90] | 0.1 to 0.5 | ≥ 10
CN1CCC[C@@H](Nc2nnc(-c3ccc(C(F)(F)F)cc3)c3cnsc23)C1 [Compound 63, (R)—N-(1-methylpiperidin-3-yl)-4-(4-(trifluoromethyl)phenyl)isothiazolo[4,5-d]pyridazin-7-amine] | 0.01 to 0.1 | 5 to 10
CN1CCC[C@@H](Nc2nnc(-c3ccc(C(F)(F)F)cc3)c3sccc23)C1 [Compound 62] | 0.01 to 0.1 | 1 to 5
CN1CCC[C@@H](Oc2nnc(-c3ccc(C(F)(F)F)cc3)c3ccsc23)C1 [Compound 87] | 0.1 to 0.5 | ≥ 10
CN1CCC[C@@H](N(C)c2nnc(-c3ccc(F)cc3O)c3cc[nH]c23)C1 [Compound 96] | 0.01 to 0.1 | ≥ 10
